Measured values taken from patent US20240287048A1, “SUBSTITUTED ACYL SULFONAMIDES FOR TREATING CANCER” (The Broad Institute, Inc., priority 2020, published 2024).

How the values were obtained:
KAT6A = target: T1, KAT6A (Homo sapiens, UniProt Q92794); test: Kat6a activity assay (TR-FRET, acetylation of biotinylated histone H4 peptide); type: biochemical; conditions: recombinant human His-tagged Kat6a (amino acids 194-810), 60 mins at 22° C., read-out: KAT6A-DPF/HAT domain IC50 [mol/l] (arithmetic mean)
T1 construct: Recombinant human His-tagged Kat6a protein (amino acids 194-810); His; made in house; host or cells: Baculovirus-infected Sf9 insect cells
Method in brief: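 His-tagged human Kat6a (aa 194-810, Sf9-expressed) with compound (0.01-20 μM) for 60 min at 22° C., pH 8 Tris buffer, 220 nM biotinylated H4 peptide (aa 1-24) and 600 nM acetyl-CoA. Acetyl-K8 detected by Eu-antibody/SA-XL665 TR-FRET (665/620 nm ratio); IC50 from 4-parameter fit.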

LCLC-97TM1 cells = test: Proliferation assay in LCLC-97TM1 cells; type: cell-based; conditions: Homo sapiens, 144 h, Alamar Blue, read-out: LCLC97TM1 proliferation assay, EC50[M] (arithmetic mean)
Method in brief: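 LCLC-97TM1 large-cell lung carcinoma cells were seeded at 6000 per well in RPMI 1640 with 2.5% FBS and exposed to compound for 144 h at 37 °C, 5% CO2, in triplicate. Viability was read by Alamar Blue fluorescence at 590 nm after 2 h.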

MDA-MB-436 cells = test: Proliferation assay in MDA-MB-436 cells (negative control cell line); type: cell-based; conditions: Homo sapiens, 144 h, Alamar Blue, read-out: MDA-MB-436 proliferation assay, EC50[M] (arithmetic mean)
Method in brief: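 KAT6A-amplified ZR-75-1 cells (RPMI 1640, 2.5% FBS) and KAT6A-low MDA-MB-436 cells (DMEM/Ham's F12, 2.5% FBS) were seeded at 3000 cells/well. Treatment lasted 144 h at 37 °C, 5% CO2, in triplicate. Viability was read by Alamar Blue (2 h) fluorescence at […].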

[1] = test system: Salmonella tester strain TA100; test: Bacterial reverse gene mutation test Ames MPF Penta I, TA100; type: cell-based
From the text: (§1) The employed commercial assay Ames MPF Penta I comprises the histidine auxotrophic Salmonella tester strains TA98, TA100, TA1535, TA1537 and two tryptophan auxotrophic tester strains E. coli wp2 (E. coli wp2 [pKM101] and E. coli wp2 uvrA, combined exposure). These strains meet the requirements of the OECD guideline 471 for testing chemicals.
(§2) Bacterial strains were exposed to various concentrations of the test compounds in a histidine (His) or tryptophane (Trp) deficient medium. As recommended by ICH S2(R1) guideline, the test was conducted in two assay conditions, with and without addition of microsomal enzymes (S9 mix), taking the potential formation of DNA reactive metabolites via xenobiotic biotransformation into account.
(§3) The potential of the test compound to induce gene mutations is assessed by comparing the control with the test compounds treated bacterial cultures.

[2] = test system: Salmonella tester strain TA1535; test: Bacterial reverse gene mutation test Ames MPF Penta I, TA1535; type: cell-based
From the text: as §1, §2, §3

[3] = test system: Salmonella tester strain TA1537; test: Bacterial reverse gene mutation test Ames MPF Penta I, TA1537; type: cell-based
From the text: as §1, §2, §3

T1 sequence (Q92794 194-810): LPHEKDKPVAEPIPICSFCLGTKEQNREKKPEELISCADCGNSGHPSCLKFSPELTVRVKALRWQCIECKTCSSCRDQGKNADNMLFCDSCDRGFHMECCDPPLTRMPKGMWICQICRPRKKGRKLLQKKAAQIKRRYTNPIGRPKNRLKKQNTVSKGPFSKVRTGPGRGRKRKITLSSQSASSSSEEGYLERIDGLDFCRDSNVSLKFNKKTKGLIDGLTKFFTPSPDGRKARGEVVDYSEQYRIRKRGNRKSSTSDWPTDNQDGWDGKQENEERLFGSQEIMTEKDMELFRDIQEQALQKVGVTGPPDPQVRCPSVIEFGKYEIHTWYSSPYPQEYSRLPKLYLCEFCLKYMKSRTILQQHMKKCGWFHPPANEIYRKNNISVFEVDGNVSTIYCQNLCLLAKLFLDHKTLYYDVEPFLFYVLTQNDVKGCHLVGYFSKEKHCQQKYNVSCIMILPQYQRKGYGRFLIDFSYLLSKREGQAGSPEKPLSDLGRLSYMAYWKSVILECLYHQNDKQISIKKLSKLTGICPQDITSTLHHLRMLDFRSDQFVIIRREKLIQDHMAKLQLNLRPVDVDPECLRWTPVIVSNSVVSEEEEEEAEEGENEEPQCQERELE

Row | SMILES | IC50 (KAT6A) | EC50 (LCLC-97TM1 cells) | EC50 (MDA-MB-436 cells) | Result of the bacterial reverse gene mutation test Ames MPF Penta I, TA100 ([1]; with addition of S9 mix) | Result of the bacterial reverse gene mutation test Ames MPF Penta I, TA100 ([1]; without addition of S9 mix) | Result of the bacterial reverse gene mutation test Ames MPF Penta I, TA1535 ([2]; with addition of S9 mix) | Result of the bacterial reverse gene mutation test Ames MPF Penta I, TA1535 ([2]; without addition of S9 mix) | Result of the bacterial reverse gene mutation test Ames MPF Penta I, TA1537 ([3]; with addition of S9 mix) | Result of the bacterial reverse gene mutation test Ames MPF Penta I, TA1537 ([3]; without addition of S9 mix)
1 | O=C(NS(=O)(=O)c1ccccc1-c1ccccc1)c1cc2ccc(C3CC3)cc2o1 [Example 16, N-([1,1′-biphenyl]-2-sulfonyl)-6-cyclopropyl-1-benzofuran-2-carboxamide] | 0.0624 µM | 1.14e-05 M | > 2e-05 M | negative | negative | negative | negative | negative | negative
2 | CCOc1ccccc1S(=O)(=O)NC(=O)c1cc2ccc(C(C)C)cc2o1 [Example 55, N-(2-Ethoxybenzenesulfonyl)-6-(propan-2-yl)-1-benzofuran-2-carboxamide] | 0.596 µM | > 2e-05 M | > 2e-05 M | negative | negative | negative | negative | negative | negative
